Experimental data published in patent publication US20110201634A1, “DIHYDROPYRIDIMIDINONE COMPOUNDS FOR THE TREATMENT OF CARDIOVASCULAR DISEASES AND PROCESS FOR PREPARING THE SAME” (DELHI UNIVERSITY, priority 2008, published 2011).

Legend:
[1] = test system: platelets (ADP-induced platelet aggregation); assay: ADP-induced platelet aggregation, ex vivo after administration by gavage; settings: po, suspended in water, sonicated, given by gavage, equimolar dose (40 μM), ADP 15 μM
Excerpt: C. Preparation of Platelet Rich Plasma for the EX VIVO Studies

[2] = test system: intracellular nitric oxide level; assay: Enhancement of intracellular nitric oxide; type: cell-based; settings: equimolar (40 μM)
[3] = test system: TAase; assay: TAase activity; type: biochemical
[4] = test system: platelets (ADP-induced platelet aggregation); assay: ADP-induced platelet aggregation, in vitro (platelet rich plasma); type: cell-based; settings: test compounds equimolar (40 μM); ADP 15 μM
Excerpt: Preparation of Platelet Rich Plasma for the IN VITRO Studies (7)

Compound	inhibition at 40 µM [1] [%]	Enhancement of Nitric Oxide (folds) [2]	TAase Activity (Units) [3]	ADP-induced Platelet aggregation (% inhibition) IN VITRO [4]
COC(=O)C(c1ccccc1Cl)N1CCc2sccc2C1 (centres unmarked)	65	Nil	Nil	Nil
CC(=O)Oc1ccccc1C(=O)O	55	Nil	Nil	Nil
